# Patent US20160271263A1 (Novo Nordisk A/S, priority 2010, published 2016)
# Numbered stars: 1 amine (or outer) side, 2 acyl side, 3 side chain; on linkers, the order of the positions; unused ones are H or OH. Side chains are listed from the residue outwards. Peptide text beside a SMILES is read from it. * marks the point of attachment. C18 diacid = O=C(O)CCCCCCCCCCCCCCCCC(=O)*; γGlu = O=C(O)[C@H](CCC(=O)[*:2])N[*:1]; AEEA = NCCOCCOCC(=O)O
# Target: glucagon receptor (Homo sapiens, UniProt P47871)
# Sequence (P47871 26-477): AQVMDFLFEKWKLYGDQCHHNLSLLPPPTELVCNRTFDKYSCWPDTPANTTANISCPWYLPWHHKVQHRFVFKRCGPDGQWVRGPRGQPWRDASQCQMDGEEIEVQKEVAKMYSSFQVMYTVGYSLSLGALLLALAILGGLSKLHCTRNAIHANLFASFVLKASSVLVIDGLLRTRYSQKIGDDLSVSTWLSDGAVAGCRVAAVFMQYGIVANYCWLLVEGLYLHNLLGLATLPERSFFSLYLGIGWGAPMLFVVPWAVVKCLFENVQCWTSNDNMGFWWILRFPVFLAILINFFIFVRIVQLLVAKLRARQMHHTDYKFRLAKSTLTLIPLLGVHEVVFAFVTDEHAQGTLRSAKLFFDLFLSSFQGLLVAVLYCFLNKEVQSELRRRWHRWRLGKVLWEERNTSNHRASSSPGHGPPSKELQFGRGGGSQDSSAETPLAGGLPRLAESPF
# Assay: cell-based
# Experimental: The cells (14000 per well) were incubated (37° C., 5% CO2) overnight in 384-well plates. Next day the cells were loaded with a calcium responsive dye that only distributed into the cytoplasm. Probenecid, an inhibitor of the organic anion transporter, was added to prevent the dye from leaving the cell. A PDE inhibitor was added to prevent formatted cAMP from being degraded. […] End point data were collected after 6 minutes. An increase in intracellular cAMP was proportional to an increased in calcium concentrations in the cytoplasm. […] EC50-values were calculated in Prism5.
row,SMILES,EC50 [nM]
1,"CC(C)C[C@H](NC(=O)[C@H](Cc1ccc(O)cc1)NC(=O)[C@H](CCCCN)NC(=O)[C@H](CO)NC(=O)[C@H](Cc1ccc(O)cc1)NC(=O)[C@H](CC(=O)O)NC(=O)[C@H](CO)NC(=O)[C@@H](NC(=O)[C@H](Cc1ccccc1)NC(=O)[C@@H](NC(=O)CNC(=O)[C@H](CCC(N)=O)NC(=O)[C@H](CO)NC(=O)[C@@H](N)Cc1c[nH]cn1)[C@@H](C)O)[C@@H](C)O)C(=O)N[C@@H](CC(=O)O)C(=O)N[C@@H](CO)C(=O)N[C@@H](CCCNC(=N)N)C(=O)N[C@@H](CCCNC(=N)N)C(=O)N[C@@H](C)C(=O)N[C@@H](CCC(=O)O)C(=O)N[C@@H](CCC(=O)O)C(=O)N[C@@H](Cc1ccccc1)C(=O)N[C@H](C(=O)N[C@@H](CCCCNC(=O)CC[C@H](NC(=O)CC[C@H](NC(=O)COCCOCCNC(=O)CC[C@H](NC(=O)CCCCCCCCCCCCCCCCC(=O)O)C(=O)O)C(=O)O)C(=O)O)C(=O)N[C@@H](Cc1c[nH]c2ccccc12)C(=O)N[C@@H](CC(C)C)C(=O)N[C@@H](CC(C)C)C(=O)N[C@@H](CO)C(=O)N[C@H](C(=O)O)[C@@H](C)O)C(C)C [Example 93, N^ε24-[(4S)-4-carboxy-4-[[(4S)-4-carboxy-4-[[2-[2-[2-[[(4S)-4-carboxy-4-(17-carboxyheptadecanoylamino)butanoyl]amino]ethoxy]ethoxy]acetyl]amino]butanoyl]amino]butanoyl]-[Glu^20,Glu^21,Lys^24,Leu^27,Ser^28]-Glucagon] (H-HSQGTFTSDYSKYLDSRRAEEFVK([γGlu-γGlu-AEEA-γGlu-C18 diacid])WLLST-OH)",0.12
2,"CC(C)C[C@H](NC(=O)[C@H](CC(C)C)NC(=O)[C@H](Cc1c[nH]c2ccccc12)NC(=O)[C@H](CCC(N)=O)NC(=O)[C@@H](NC(=O)[C@H](Cc1ccccc1)NC(=O)[C@H](CC(=O)O)NC(=O)[C@H](CCC(N)=O)NC(=O)[C@H](C)NC(=O)[C@H](CCCNC(=N)N)NC(=O)[C@H](CCCNC(=N)N)NC(=O)[C@H](CO)NC(=O)[C@H](CC(=O)O)NC(=O)[C@H](CC(C)C)NC(=O)[C@H](Cc1ccc(O)cc1)NC(=O)[C@H](CCCCN)NC(=O)[C@H](CO)NC(=O)[C@H](Cc1ccc(O)cc1)NC(=O)[C@H](CC(=O)O)NC(=O)[C@H](CO)NC(=O)[C@@H](NC(=O)[C@H](Cc1ccccc1)NC(=O)[C@@H](NC(=O)CNC(=O)[C@H](CCC(N)=O)NC(=O)[C@H](CO)NC(=O)[C@@H](N)Cc1c[nH]cn1)[C@@H](C)O)[C@@H](C)O)C(C)C)C(=O)N[C@@H](CC(N)=O)C(=O)N[C@@H](CCCCNC(=O)CC[C@H](NC(=O)CC[C@H](NC(=O)COCCOCCNC(=O)COCCOCCNC(=O)CC[C@H](NC(=O)CCCCCCCCCCCCCCCCC(=O)O)C(=O)O)C(=O)O)C(=O)O)C(=O)O [Example 53, N^ε29-([(4S)-5-hydroxy-4-[[(4S)-5-hydroxy-4-[[2-[2-[2-[[2-[2-[2-[[(4S)-5-hydroxy-4-[(18-hydroxy-18-oxooctadecanoyl)amino]-5-oxopentanoyl]amino]ethoxy]ethoxy]acetyl]amino]ethoxy]ethoxy]acetyl]amino]-5-oxopentanoyl]amino]-5-oxopentanyl]) [Leu^27,Lys^29] Glucagon]",0.095
3,"CC(C)C[C@H](NC(=O)[C@H](Cc1ccc(O)cc1)NC(=O)[C@H](CCCCN)NC(=O)[C@H](CO)NC(=O)[C@H](Cc1ccc(O)cc1)NC(=O)[C@H](CC(=O)O)NC(=O)[C@H](CO)NC(=O)[C@@H](NC(=O)[C@H](Cc1ccccc1)NC(=O)[C@@H](NC(=O)CNC(=O)[C@H](CCC(N)=O)NC(=O)[C@H](CO)NC(=O)[C@@H](N)Cc1c[nH]cn1)[C@@H](C)O)[C@@H](C)O)C(=O)N[C@@H](CC(=O)O)C(=O)N[C@@H](CCCCNC(=O)CC[C@H](NC(=O)CC[C@H](NC(=O)COCCOCCNC(=O)COCCOCCNC(=O)CC[C@H](NC(=O)CCCCCCCCCCCCCCCCC(=O)O)C(=O)O)C(=O)O)C(=O)O)C(=O)N[C@@H](CCCNC(=N)N)C(=O)N[C@@H](CCCNC(=N)N)C(=O)N[C@@H](C)C(=O)N[C@@H](CCC(N)=O)C(=O)N[C@@H](CC(=O)O)C(=O)N[C@@H](Cc1ccccc1)C(=O)N[C@H](C(=O)N[C@@H](CCC(N)=O)C(=O)N[C@@H](Cc1c[nH]c2ccccc12)C(=O)N[C@@H](CC(C)C)C(=O)N[C@@H](CC(C)C)C(=O)N[C@@H](CC(N)=O)C(=O)N[C@H](C(=O)O)[C@@H](C)O)C(C)C [Example 70, N^ε16-[(4S)-4-carboxy-4-[[(4S)-4-carboxy-4-[[2-[2-[2-[[2-[2-[2-[[(4S)-4-carboxy-4-(17-carboxyheptadecanoylamino)butanoyl]amino]ethoxy]ethoxy]acetyl]amino]ethoxy]ethoxy]acetyl]amino]butanoyl]amino]butanoyl]-[Lys^16,Leu^27]-Glucagon] (H-HSQGTFTSDYSKYLDK([γGlu-γGlu-AEEA-AEEA-γGlu-C18 diacid])RRAQDFVQWLLNT-OH; N-terminus and C-terminus assumed)",0.105

# The next compounds have a lower EC50 than those just listed; values first:
row,EC50 [nM],SMILES
1,0.017,"CC(C)C[C@H](NC(=O)[C@H](Cc1ccc(O)cc1)NC(=O)[C@H](CCCCN)NC(=O)[C@H](CO)NC(=O)[C@H](Cc1ccc(O)cc1)NC(=O)[C@H](CC(=O)O)NC(=O)[C@H](CO)NC(=O)[C@@H](NC(=O)[C@H](Cc1ccccc1)NC(=O)[C@@H](NC(=O)CNC(=O)[C@H](CCC(N)=O)NC(=O)[C@H](CO)NC(=O)[C@@H](N)Cc1c[nH]cn1)[C@@H](C)O)[C@@H](C)O)C(=O)N[C@@H](CC(=O)O)C(=O)N[C@@H](CO)C(=O)N[C@@H](CCCCN)C(=O)N[C@@H](CCCNC(=N)N)C(=O)N[C@@H](C)C(=O)N[C@@H](CCC(N)=O)C(=O)N[C@@H](CCC(=O)O)C(=O)N[C@@H](Cc1ccccc1)C(=O)N[C@H](C(=O)N[C@@H](CCC(N)=O)C(=O)N[C@@H](Cc1c[nH]c2ccccc12)C(=O)N[C@@H](CC(C)C)C(=O)N[C@@H](CC(C)C)C(=O)N[C@@H](CC(N)=O)C(=O)N[C@H](C(=O)N[C@@H](CCCCNC(=O)COCCOCCNC(=O)COCCOCCNC(=O)CC[C@H](NC(=O)CCCCCCCCCCCCCCCCC(=O)O)C(=O)O)C(N)=O)[C@@H](C)O)C(C)C [Example 42, N^α-([Lys^17, Glu^21, Leu^27] Glucagonyl) N^ε-([2-[2-[2-[[2-[2-[2-[[(4S)-5-hydroxy-4-[(18-hydroxy-18-oxooctadecanoyl)amino]-5-oxopentanoyl]amino]ethoxy]ethoxy]acetyl]amino]ethoxy]ethoxy]acetyl]) Lysinyl amide] (H-HSQGTFTSDYSKYLDSKRAQEFVQWLLNTK([AEEA-AEEA-γGlu-C18 diacid])-NH2; N-terminus assumed)"
2,0.003,"CC(C)C[C@H](NC(=O)[C@H](Cc1ccc(O)cc1)NC(=O)[C@H](CCCCN)NC(=O)[C@H](CO)NC(=O)[C@H](Cc1ccc(O)cc1)NC(=O)[C@H](CC(=O)O)NC(=O)[C@H](CO)NC(=O)[C@@H](NC(=O)[C@H](Cc1ccccc1)NC(=O)[C@@H](NC(=O)CNC(=O)[C@H](CCC(N)=O)NC(=O)[C@H](CO)NC(=O)[C@@H](N)Cc1c[nH]cn1)[C@@H](C)O)[C@@H](C)O)C(=O)N[C@@H](CC(=O)O)C(=O)N[C@@H](CO)C(=O)N[C@@H](CCCCN)C(=O)N[C@@H](CCCNC(=N)N)C(=O)N[C@@H](C)C(=O)N[C@@H](CCC(N)=O)C(=O)N[C@@H](CCC(=O)O)C(=O)N[C@@H](Cc1ccccc1)C(=O)N[C@H](C(=O)N[C@@H](CCCCNC(=O)COCCOCCNC(=O)COCCOCCNC(=O)CC[C@H](NC(=O)CCCCCCCCCCCCCCCCC(=O)O)C(=O)O)C(=O)N[C@@H](Cc1c[nH]c2ccccc12)C(=O)N[C@@H](CC(C)C)C(=O)N[C@@H](CC(C)C)C(=O)N[C@@H](CCC(=O)O)C(=O)N[C@H](C(N)=O)[C@@H](C)O)C(C)C [Example 41, N^ε24-([2-[2-[2-[[2-[2-[2-[[(4S)-5-hydroxy-4-[(18-hydroxy-18-oxooctadecanoyl)amino]-5-oxopentanoyl]amino]ethoxy]ethoxy]acetyl]amino]ethoxy]ethoxy]acetyl])[Lys^17, Glu^21,Lys^24,Leu^27,Glu^28,]Glucagon peptide amide] (H-HSQGTFTSDYSKYLDSKRAQEFVK([AEEA-AEEA-γGlu-C18 diacid])WLLET-NH2; N-terminus assumed)"
3,0.033,"CC(C)C[C@H](NC(=O)[C@H](Cc1ccc(O)cc1)NC(=O)[C@H](CCCCN)NC(=O)[C@H](CO)NC(=O)[C@H](Cc1ccc(O)cc1)NC(=O)[C@H](CC(=O)O)NC(=O)[C@H](CO)NC(=O)[C@@H](NC(=O)[C@H](Cc1ccccc1)NC(=O)[C@@H](NC(=O)CNC(=O)[C@H](CCC(N)=O)NC(=O)[C@H](CO)NC(=O)[C@@H](N)Cc1c[nH]cn1)[C@@H](C)O)[C@@H](C)O)C(=O)N[C@@H](CC(=O)O)C(=O)N[C@@H](CO)C(=O)N[C@@H](CCCCN)C(=O)N[C@@H](C)C(=O)N[C@@H](C)C(=O)N[C@@H](CCC(N)=O)C(=O)N[C@@H](CCC(=O)O)C(=O)N[C@@H](Cc1ccccc1)C(=O)N[C@H](C(=O)N[C@@H](CCCCNC(=O)COCCOCCNC(=O)COCCOCCNC(=O)CC[C@H](NC(=O)CCCCCCCCCCCCCCCCC(=O)O)C(=O)O)C(=O)N[C@@H](Cc1c[nH]c2ccccc12)C(=O)N[C@@H](CC(C)C)C(=O)N[C@@H](CC(C)C)C(=O)N[C@@H](CC(N)=O)C(=O)N[C@H](C(N)=O)[C@@H](C)O)C(C)C [Example 37, N^ε24-([2-[2-[2-[[2-[2-[2-[[(4S)-5-hydroxy-4-[(18-hydroxy-18-oxooctadecanoyl)amino]-5-oxopentanoyl]amino]ethoxy]ethoxy]acetyl]amino]ethoxy]ethoxy]acetyl])[Lys^17, Ala^18,Glu^21, Lys^24, Leu^27] Glucagon peptide amide] (H-HSQGTFTSDYSKYLDSKAAQEFVK([AEEA-AEEA-γGlu-C18 diacid])WLLNT-NH2; N-terminus assumed)"
